Measurements published in patent publication US12540128B2, “Substituted pyridazinones as herbicides” (SYNGENTA CROP PROTECTION AG, priority 2019, dated 2026).

Legend:
Assay type in all cases: in vivo
Conditions in all cases: 250 g/ha, after 13 days
[1] = test system: Amaranthus retoflexus (AMARE); assay: B1 Post-Emergence Efficacy Test 1
Description: (§1) Seeds of a variety of test species are sown in standard soil in pots:— Solanum nigrum (SOLNI), Amaranthus retoflexus (AMARE), Setaria faberi (SETFA), Echinochloa crus-galli (ECHCG), Ipomoea hederacea (IPOHE), Lolium perenne (LOLPE). After 8 days cultivation (post-emergence) under controlled conditions in a glasshouse (at 24/16° C., day/night; 14 hours light; 65% humidity), the plants are sprayed with an aqueous spray solution derived from the formulation of the technical active ingredient in acetone/water (50:50) solution containing 0.5% Tween 20 (polyoxyethylene sorbitan monolaurate, CAS RN 9005-64-5). Compounds are applied at 250 g/ha. The test plants are then grown in a glasshouse under controlled conditions in a glasshouse (at 24/16° C., day/night; 14 hours light; 65% humidity) and watered twice daily. After 13 days, the test is evaluated for the percentage damage caused to the plant. The biological activities are assessed on a five point scale (5=80-100%; 4=60-79%; 3=40-59%; 2=20-39%; 1=0-19%). A blank value in the table is indicative that the compound was not tested on that species.

[2] = test system: Echinochloa crus-galli (ECHCG); assay: B1 Post-Emergence Efficacy Test 1
Description: as §1

[3] = test system: Ipomoea hederacea (IPOHE); assay: B1 Post-Emergence Efficacy Test 1
Description: as §1

Lolium perenne (LOLPE) [4] = assay: B1 Post-Emergence Efficacy Test 1
Description: as §1

Setaria faberi (SETFA) [5] = assay: B1 Post-Emergence Efficacy Test 1
Description: as §1

Solanum nigrum (SOLNI) [6] = assay: B1 Post-Emergence Efficacy Test 1
Description: as §1

[7] = test system: Amaranthus retoflexus (AMARE); assay: B3 Pre-Emergence Efficacy Test 1
Description: (§2) Seeds of a variety of test species were sown in standard soil in pots: Solanum nigrum (SOLNI), Amaranthus retoflexus (AMARE), Setaria faberi (SETFA), Echinochloa crus-galli (ECHCG), Ipomoea hederacea (IPOHE), Lolium perenne (LOLPE). After cultivation for one day (pre-emergence) under controlled conditions in a glasshouse (at 24/16° C., day/night; 14 hours light; 65% humidity), the plants were sprayed with an aqueous spray solution derived from the formulation of the technical active ingredient in acetone/water (50:50) solution containing 0.5% Tween 20 (polyoxyethelyene sorbitan monolaurate, CAS RN 9005-64-5). Compounds are applied at 250 g/ha. The test plants were then grown in a glasshouse under controlled conditions (at 24/16° C., day/night; 14 hours light; 65% humidity) and watered twice daily. After 13 days, the test is evaluated for the percentage damage caused to the plant. The biological activities are assessed on a five point scale (5=80-100%; 4=60-79%; 3=40-59%; 2=20-39%; 1=0-19%). A blank value in the table is indicative that the compound was not tested on that species.

[8] = test system: Echinochloa crus-galli (ECHCG); assay: B3 Pre-Emergence Efficacy Test 1
Description: as §2

[9] = test system: Ipomoea hederacea (IPOHE); assay: B3 Pre-Emergence Efficacy Test 1
Description: as §2

Lolium perenne (LOLPE) [10] = assay: B3 Pre-Emergence Efficacy Test 1
Description: as §2

Setaria faberi (SETFA) [11] = assay: B3 Pre-Emergence Efficacy Test 1
Description: as §2

Solanum nigrum (SOLNI) [12] = assay: B3 Pre-Emergence Efficacy Test 1
Description: as §2

Row | SMILES | percentage damage caused to the plant, five point scale, AMARE [1] | percentage damage caused to the plant, five point scale, ECHCG [2] | percentage damage caused to the plant, five point scale, IPOHE [3] | percentage damage caused to the plant, five point scale, LOLPE (Lolium perenne (LOLPE) [4]) | percentage damage caused to the plant, five point scale, SETFA (Setaria faberi (SETFA) [5]) | percentage damage caused to the plant, five point scale, SOLNI (Solanum nigrum (SOLNI) [6]) | percentage damage caused to the plant, five point scale, AMARE [7] | percentage damage caused to the plant, five point scale, ECHCG [8] | percentage damage caused to the plant, five point scale, IPOHE [9] | percentage damage caused to the plant, five point scale, LOLPE (Lolium perenne (LOLPE) [10]) | percentage damage caused to the plant, five point scale, SETFA (Setaria faberi (SETFA) [11]) | percentage damage caused to the plant, five point scale, SOLNI (Solanum nigrum (SOLNI) [12])
1 | Cc1nn(C)c(=O)c(-c2c(F)ccc(Cl)c2CCc2ccc3c(c2)CCCN3)c1O [Compound 1.019] | 4 (4=60-79%) | 3 (3=40-59%) | 5 (5=80-100%) | 5 (5=80-100%) | 5 (5=80-100%) | 5 (5=80-100%) | 5 (5=80-100%) | 1 (1=0-19%) | 1 (1=0-19%) | 3 (3=40-59%) | 4 (4=60-79%) | 5 (5=80-100%)
2 | CCc1nc2ccc(CCc3c(Cl)ccc(F)c3-c3c(O)c(C)nn(C)c3=O)cc2o1 [Compound 1.028] | 5 (5=80-100%) | 5 (5=80-100%) | 5 (5=80-100%) | 5 (5=80-100%) | 5 (5=80-100%) | 5 (5=80-100%) | 5 (5=80-100%) | 1 (1=0-19%) | 5 (5=80-100%) | 5 (5=80-100%) | 5 (5=80-100%) | 5 (5=80-100%)
3 | Cc1nn(C)c(=O)c(-c2c(F)ccc(Cl)c2CCc2ccnc3ccccc23)c1O [Compound 1.036] | 5 (5=80-100%) | 5 (5=80-100%) | 5 (5=80-100%) | 5 (5=80-100%) | 5 (5=80-100%) | 5 (5=80-100%) | 5 (5=80-100%) | 5 (5=80-100%) | 5 (5=80-100%) | 5 (5=80-100%) | 5 (5=80-100%) | 5 (5=80-100%)
4 | Cc1nn(C)c(=O)c(-c2c(F)ccc(Cl)c2CCc2ccc3c(c2)CCC(C)N3)c1OC(=O)C(C)C (stereo not drawn) [Compound 3.030, [5-[3-chloro-6-fluoro-2-[2-(2-methyl-1,2,3,4-tetrahydroquinolin-6-yl)ethyl]phenyl]-1,3-dimethyl-6-oxo-pyridazin-4-yl] 2-methylpropanoate] | 5 (5=80-100%) | 5 (5=80-100%) | 5 (5=80-100%) | 5 (5=80-100%) | 5 (5=80-100%) | 5 (5=80-100%) | 5 (5=80-100%) | 5 (5=80-100%) | 5 (5=80-100%) | 5 (5=80-100%) | 5 (5=80-100%) | 5 (5=80-100%)
5 | Cc1ccc2cc(CCc3c(Cl)ccc(F)c3-c3c(OC(=O)C(C)C)c(C)nn(C)c3=O)ccc2n1 [Compound 3.034, [5-[3-chloro-6-fluoro-2-[2-(2-methyl-6-quinolyl)ethyl]phenyl]-1,3-dimethyl-6-oxo-pyridazin-4-yl] 2-methylpropanoate] | 4 (4=60-79%) | 4 (4=60-79%) | 4 (4=60-79%) | 5 (5=80-100%) | 5 (5=80-100%) | 5 (5=80-100%) | 5 (5=80-100%) | 5 (5=80-100%) | 2 (2=20-39%) | 5 (5=80-100%) | 5 (5=80-100%) | 5 (5=80-100%)
6 | Cc1nn(C)c(=O)c(-c2c(F)ccc(Cl)c2/C=C/c2ccc3c(c2)OC(F)(F)O3)c1OC(=O)C(C)C [Compound 4.342] | 0 | 1 (1=0-19%) | 3 (3=40-59%) | 2 (2=20-39%) | 1 (1=0-19%) | 4 (4=60-79%) | 1 (1=0-19%) | 0 | 1 (1=0-19%) | 0 | 0 | 3 (3=40-59%)
